Reference: PubChem BioAssay AID330 (DTP/NCI, 2004)
Values joined by “and” are separate entries in the source; they are usually repeats but may differ in a detail not shown here. Identical values can stand only once. Toxic doses and inconclusive results are not listed. The calls were made as follows: active = survival T/C of 150% or more; inactive = T/C below 125% in these data.

Test system: P388 leukemia ip, CD2F1 mice, survival T/C
Assay: NCI In Vivo Anticancer Drug Screen. Data for tumor model P388 Leukemia (intraperitoneal) in CD2F1 (CDF1) mice
Conditions: endpoint: median survival time, higher = longer survival
How it was run: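 Mice carrying the transplanted tumor received test compound or vehicle. Survival was recorded in each group, and the value is the treated-group measurement divided by that of the vehicle-treated control group.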

[1] = dose: 50.0 mg/kg/injection, schedule: Q01DX005 (ip), vehicle: saline
[2] = dose: 100.0 mg/kg/injection, schedule: Q01DX005 (ip), vehicle: saline
[3] = dose: 200.0 mg/kg/injection, schedule: Q01DX005 (ip), vehicle: saline
[4] = dose: 400.0 mg/kg/injection, schedule: Q01DX005 (ip), vehicle: saline
[5] = dose: 50.0 mg/kg/injection, schedule: Q01DX009 (ip), vehicle: saline
[6] = dose: 100.0 mg/kg/injection, schedule: Q01DX009 (ip), vehicle: saline
[7] = dose: 200.0 mg/kg/injection, schedule: Q01DX009 (ip), vehicle: saline
[8] = dose: 60.0 mg/kg/injection, schedule: Q01DX005 (ip), vehicle: saline with Tween-80
[9] = dose: 120.0 mg/kg/injection, schedule: Q01DX005 (ip), vehicle: saline with Tween-80
[10] = dose: 240.0 mg/kg/injection, schedule: Q01DX005 (ip), vehicle: saline with Tween-80
[11] = dose: 50.0 mg/kg/injection, schedule: Q01DX009 (ip), vehicle: Klucel (hydroxypropylcellulose) (HPC)
[12] = dose: 100.0 mg/kg/injection, schedule: Q01DX009 (ip), vehicle: Klucel (hydroxypropylcellulose) (HPC)
[13] = dose: 200.0 mg/kg/injection, schedule: Q01DX009 (ip), vehicle: Klucel (hydroxypropylcellulose) (HPC)
[14] = dose: 50.0 mg/kg/injection, schedule: Q01DX005 (ip), vehicle: saline with Tween-80
[15] = dose: 100.0 mg/kg/injection, schedule: Q01DX005 (ip), vehicle: saline with Tween-80
[16] = dose: 15.0 mg/kg/injection, schedule: Q01DX005 (ip), vehicle: saline with Tween-80
[17] = dose: 30.0 mg/kg/injection, schedule: Q01DX005 (ip), vehicle: saline with Tween-80
[18] = dose: 200.0 mg/kg/injection, schedule: Q01DX005 (ip), vehicle: saline with Tween-80
[19] = dose: 50.0 mg/kg/injection, schedule: Q01DX009 (ip), vehicle: saline with Tween-80

Measured: T/C

O=C1C=C(NCC2CCCN3CCCCC23)C(=O)c2ccccc21 (stereo not drawn)
inactive: dose: 94.62 mg/kg/injection, schedule: Q04DX002 (ip), vehicle: Klucel (hydroxypropylcellulose) (HPC) 112 % of control | dose: 189.25 mg/kg/injection, schedule: Q04DX002 (ip), vehicle: Klucel (hydroxypropylcellulose) (HPC) 111 % of control

O=c1c(O)cccn1C1OC(CO)C(O)C1O (stereo not drawn)
inactive: [1] 99 % of control and 97 % of control and 104 % of control | [2] 99 % of control and 101 % of control and 117 % of control | [3] 104 % of control [middle of 4 runs] | [4] 102 % of control and 112 % of control and 87 % of control

NC(Cc1cnc[nH]1)C(=O)O (stereo not drawn)
inactive: [5] 110 % of control | [6] 107 % of control | [7] 110 % of control

O=S(O)O
inactive: [1] 108 % of control | [2] 101 % of control | [3] 109 % of control | [4] 116 % of control

O=C1C=CSc2ccccc2N1
inactive: [8] 110 % of control | [9] 103 % of control | [10] 101 % of control

N#CC(Cc1ccccc1)c1ccc(Cl)cc1 (stereo not drawn)
inactive: [11] 106 % of control | [12] 110 % of control | [13] 104 % of control | dose: 400.0 mg/kg/injection, schedule: Q01DX009 (ip), vehicle: Klucel (hydroxypropylcellulose) (HPC) 109 % of control

CSc1nc(NC(C)C)nc(NC(C)C)n1
inactive: dose: 50.0 mg/kg/injection, schedule: Q04DX003 (ip), vehicle: saline with Tween-80 100 % of control | dose: 100.0 mg/kg/injection, schedule: Q04DX003 (ip), vehicle: saline with Tween-80 91 % of control

COC(=O)C1CC(C(=O)c2ccccc2)N2C=CC=C(C#N)C12 (stereo not drawn)
inactive: dose: 4.38 mg/kg/injection, schedule: Q01DX005 (ip), vehicle: Klucel (hydroxypropylcellulose) (HPC) 101 % of control | dose: 8.75 mg/kg/injection, schedule: Q01DX005 (ip), vehicle: Klucel (hydroxypropylcellulose) (HPC) 91 % of control | dose: 17.5 mg/kg/injection, schedule: Q01DX005 (ip), vehicle: Klucel (hydroxypropylcellulose) (HPC) 101 % of control

CCCCCc1cc(O)c2c3c(c(=O)oc2c1)CP(=O)(c1ccccc1)CC3 (stereo not drawn)
inactive: dose: 100.0 mg/kg/injection, schedule: Q01DX001 (ip), vehicle: saline with Tween-80 102 % of control | dose: 200.0 mg/kg/injection, schedule: Q01DX001 (ip), vehicle: saline with Tween-80 98 % of control | dose: 400.0 mg/kg/injection, schedule: Q01DX001 (ip), vehicle: saline with Tween-80 90 % of control

Cc1ccc(S(=O)(=O)NC2CC3(C)CCC2C3(C)C)cc1 (stereo not drawn)
inactive: dose: 50.0 mg/kg/injection, schedule: Q01DX005 (ip), vehicle: Klucel (hydroxypropylcellulose) (HPC) 94 % of control | dose: 100.0 mg/kg/injection, schedule: Q01DX005 (ip), vehicle: Klucel (hydroxypropylcellulose) (HPC) 97 % of control | dose: 200.0 mg/kg/injection, schedule: Q01DX005 (ip), vehicle: Klucel (hydroxypropylcellulose) (HPC) 87 % of control

CC1CN(/C=C2\Cc3c(Cl)cccc3C2=O)CCN1c1ccc(Cl)cc1 (stereo not drawn)
inactive: dose: 100.0 mg/kg/injection, schedule: Q04DX002 (ip), vehicle: saline 100 % of control | dose: 200.0 mg/kg/injection, schedule: Q04DX002 (ip), vehicle: saline 102 % of control | dose: 400.0 mg/kg/injection, schedule: Q04DX002 (ip), vehicle: saline 100 % of control

O=C1C=CC(=Nc2cc3c(cc2Br)-c2ccccc2C3=O)O1
inactive: dose: 3.12 mg/kg/injection, schedule: Q01DX005 (ip), vehicle: saline with Tween-80 100 % of control and 98 % of control | dose: 6.25 mg/kg/injection, schedule: Q01DX005 (ip), vehicle: saline with Tween-80 100 % of control and 104 % of control | dose: 12.5 mg/kg/injection, schedule: Q01DX005 (ip), vehicle: saline with Tween-80 104 % of control and 105 % of control | dose: 25.0 mg/kg/injection, schedule: Q01DX005 (ip), vehicle: saline with Tween-80 104 % of control and 106 % of control and 117 % of control | [14] 103 % of control and 105 % of control | [15] 104 % of control

CCN(CC)CCCNc1ccc(C)c2sc3ccccc3c(=O)c12
inactive: dose: 12.5 mg/kg/injection, schedule: Q01DX005 (ip), vehicle: saline 100 % of control | dose: 25.0 mg/kg/injection, schedule: Q01DX005 (ip), vehicle: saline 109 % of control | [1] 99 % of control and 114 % of control

CC(/C=N\Nc1ccc(C(=O)O)cc1)=N/N(C)C
inactive: dose: 100.0 mg/kg/injection, schedule: Q04DX003 (ip), vehicle: saline 101 % of control | dose: 200.0 mg/kg/injection, schedule: Q04DX003 (ip), vehicle: saline 98 % of control | dose: 400.0 mg/kg/injection, schedule: Q04DX003 (ip), vehicle: saline 101 % of control

Cc1cc2cc3c(=O)[nH]c(=O)nc-3n(CC(O)C(O)C(O)CO)c2cc1C (stereo not drawn)
inactive: [16] 101 % of control and 103 % of control | [17] 116 % of control and 98 % of control

COC(=O)/C(C1=C(Br)C(=O)C(C)=C(Br)C1=O)=C1/CCCN1
inactive: dose: 9.37 mg/kg/injection, schedule: Q01DX005 (ip), vehicle: Klucel (hydroxypropylcellulose) (HPC) 112 % of control | dose: 9.37 mg/kg/injection, schedule: Q04DX002 (ip), vehicle: Klucel (hydroxypropylcellulose) (HPC) 101 % of control | dose: 18.75 mg/kg/injection, schedule: Q01DX005 (ip), vehicle: Klucel (hydroxypropylcellulose) (HPC) 117 % of control | dose: 18.75 mg/kg/injection, schedule: Q04DX002 (ip), vehicle: Klucel (hydroxypropylcellulose) (HPC) 92 % of control | dose: 37.5 mg/kg/injection, schedule: Q01DX005 (ip), vehicle: Klucel (hydroxypropylcellulose) (HPC) 112 % of control | dose: 37.5 mg/kg/injection, schedule: Q04DX002 (ip), vehicle: Klucel (hydroxypropylcellulose) (HPC) 100 % of control | dose: 75.0 mg/kg/injection, schedule: Q04DX002 (ip), vehicle: Klucel (hydroxypropylcellulose) (HPC) 104 % of control

CN1C(=O)CNC(=O)c2ccc(Cl)cc21
inactive: [14] 108 % of control | [15] 90 % of control | [18] 115 % of control

O=C(O)C(O)(C1CCCCC1)C1CCC(C2CCCCC2)CC1C1CCCCC1 (stereo not drawn)
inactive: [14] 98 % of control | [15] 102 % of control | [18] 100 % of control

O=C(Nc1ccccc1)OCc1ccc(OCc2ccccc2)cc1
inactive: dose: 25.0 mg/kg/injection, schedule: Q01DX009 (ip), vehicle: saline with Tween-80 107 % of control and 94 % of control | [19] 110 % of control and 95 % of control | dose: 100.0 mg/kg/injection, schedule: Q01DX009 (ip), vehicle: saline with Tween-80 104 % of control and 89 % of control | dose: 200.0 mg/kg/injection, schedule: Q01DX009 (ip), vehicle: saline with Tween-80 95 % of control

CC1=NN(c2cc(Cl)c(S(=O)(=O)O)cc2Cl)C(=O)C1N=Nc1ccc(S(=O)(=O)O)cc1 (stereo not drawn)
inactive: [5] 103 % of control | [6] 100 % of control | [7] 99 % of control

COC(OC)(OC)OC
inactive: [1] 104 % of control | [2] 108 % of control | [3] 109 % of control

CCc1ccc(O)c(CN2CCN(Cc3cc(CC)ccc3O)CC2)c1
inactive: [16] 89 % of control | [17] 86 % of control

Nc1cc2[nH]ccc2c(=O)[nH]1
inactive: [1] 108 % of control | [2] 113 % of control | [3] 114 % of control

Nc1ccccc1-c1ccccc1[N+](=O)[O-]
inactive: [5] 95 % of control | [6] 96 % of control | [7] 95 % of control

NC(=S)NNC(=O)C(Cc1ccccc1)NC(=O)OCc1ccccc1 (stereo not drawn)
inactive: [19] 93 % of control

CC1=NNC(=S)NCCCN2CCN(CCCNC(=S)NN=C(C)C=NNC(=S)NCCCN3CCN(CCCNC(=S)NN=C1)CC3)CC2
inactive: dose: 50.0 mg/kg/injection, schedule: Q01DX005 (ip), vehicle: suspension in saline 106 % of control | dose: 100.0 mg/kg/injection, schedule: Q01DX005 (ip), vehicle: suspension in saline 113 % of control | dose: 200.0 mg/kg/injection, schedule: Q01DX005 (ip), vehicle: suspension in saline 106 % of control

Oc1ccc(C2COc3c(ccc(O)c3O)C2)cc1 (stereo not drawn)
inactive: [8] 98 % of control | [9] 100 % of control | [10] 101 % of control

c1ccc(-c2csc(-c3nc(-c4ccccc4)cs3)n2)cc1
inactive: dose: 25.0 mg/kg/injection, schedule: Q01DX009 (ip), vehicle: Klucel (hydroxypropylcellulose) (HPC) 117 % of control | [11] 113 % of control | [8] 99 % of control | [12] 118 % of control | [9] 96 % of control | [13] 110 % of control | [10] 96 % of control
